Patent US20110182850A1, “ORGANIC COMPOUNDS AND THEIR USES” (priority 2009, published 2011)

Biological target: T1, HCV NS3-4A serine protease (full-length NS3-4A protein, genotype 1a, strain HCV-1) (Hepatitis C virus genotype 1a, UniProt P26664)
T1 construct: using the full-length NS3-4A protein (genotype 1a, strain HCV-1)
Test: HCV NS3-4A protease assay
Assay type: biochemical
Details: Protease IC50
Experimental: The inhibitory activity of certain compounds of Table A against HCV NS3-4A serine protease is determined in a homogenous assay using the full-length NS3-4A protein (genotype 1a, strain HCV-1) and a commercially available internally-quenched fluorogenic peptide substrate as described by Taliani, M., et al. 1996 Anal. Biochem. 240:60-67, which is incorporated by reference in its entirety.

T1 sequence (P26664 1658-1711): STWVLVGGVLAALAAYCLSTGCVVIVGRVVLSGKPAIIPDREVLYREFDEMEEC
T1 sequence (P26664 1027-1657): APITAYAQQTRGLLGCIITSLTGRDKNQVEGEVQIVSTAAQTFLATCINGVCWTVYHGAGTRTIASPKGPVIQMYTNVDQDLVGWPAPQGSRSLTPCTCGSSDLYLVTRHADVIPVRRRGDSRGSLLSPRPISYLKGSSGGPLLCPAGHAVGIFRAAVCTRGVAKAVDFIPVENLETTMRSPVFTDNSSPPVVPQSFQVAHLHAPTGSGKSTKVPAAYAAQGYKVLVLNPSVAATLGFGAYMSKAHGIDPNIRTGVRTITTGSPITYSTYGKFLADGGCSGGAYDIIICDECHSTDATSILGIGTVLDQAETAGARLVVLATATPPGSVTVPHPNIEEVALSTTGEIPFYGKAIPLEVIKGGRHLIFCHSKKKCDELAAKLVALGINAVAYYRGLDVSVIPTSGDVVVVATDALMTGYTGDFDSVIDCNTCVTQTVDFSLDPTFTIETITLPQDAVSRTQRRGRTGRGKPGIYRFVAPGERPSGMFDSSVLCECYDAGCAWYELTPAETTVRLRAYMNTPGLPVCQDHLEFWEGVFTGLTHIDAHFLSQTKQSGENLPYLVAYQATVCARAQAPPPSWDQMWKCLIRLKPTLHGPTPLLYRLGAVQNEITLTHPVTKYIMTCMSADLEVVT

**Q.** `C=C[C@@H]1C[C@]1(NC(=O)[C@@H]1C[C@@]2(CN1C(=O)C(NC(=O)[C@@H](NC(=O)c1cnccn1)C1CCCCC1)C(C)(C)C)C(C)(C)C21CCC1)C(=O)NS(=O)(=O)C1CC1` (stereo partly drawn) [Compound 87, (5R,8S)-7-[2-({(2S)-2-cyclohexyl-2-[(pyrazin-2-ylcarbonyl)amino]acetyl}amino)-3,3-dimethylbutanoyl]-N-{(1R,2S)-1-[(cyclopropylsulfonyl)carba-moyl]-2-vinylcyclopropyl}-10,10-dimethyl-7-azadispiro[3.0.4.1]decane-8-carboxamide] was tested. Which IC50 did it give?
**A.** Its IC50 is 2.5 nM.

**Q.** How did the IC50 turn out when `C=C[C@@H]1C[C@]1(NC(=O)[C@@H]1C[C@@]2(CN1C(=O)[C@@H](NC(=O)[C@@H](NC(=O)c1cnccn1)C1CCCCC1)C(C)(C)C)C(C)(C)C21CCC1)C(=O)NS(=O)(=O)C1CC1` [Compound 88, (5R,8S)-7-[(2S)-2-({(2S)-2-cyclohexyl-2-[(pyrazin-2-ylcarbonyl)amino]acetyl}amino)-3,3-dimethylbutanoyl]-N-{(1R,2S)-1-[(cyclopropylsulfonyl)carba-moyl]-2-vinylcyclopropyl}-10,10-dimethyl-7-azadispiro[3.0.4.1]decane-8-carboxamide] was run?
**A.** The IC50 was 0.8 nM.

**Q.** For `C=C[C@@H]1C[C@]1(NC(=O)[C@@H]1C[C@@]2(CN1C(=O)[C@@H](NC(=O)[C@@H](NC(=O)C(C)(C)N1CCCC1)C1CCCCC1)C(C)(C)C)C(C)(C)C21CCC1)C(=O)NS(=O)(=O)C1CC1` [Compound 89, (5R,8S)-7-[(2S)-2-({(2S)-2-cyclohexyl-2-[(2-methyl-2-pyrrolidin-1-ylpropanoyl)amino]acetyl}amino)-3,3-dimethylbutanoyl]-N-{(1R,2S)-1-[(cyclopropylsulfonyl)carba-moyl]-2-vinylcyclopropyl}-10,10-dimethyl-7-azadispiro[3.0.4.1]decane-8-carboxamide], which IC50 is on record?
**A.** Its IC50 is 0.8 nM.

**Q.** Which IC50 does the source give for `C=C[C@@H]1C[C@]1(NC(=O)[C@@H]1C[C@@]2(CN1C(=O)[C@@H](NC(=O)[C@@H](NC(=O)[C@@H]1CCCN(CC)C1)C1CCCCC1)C(C)(C)C)C(C)(C)C21CCC1)C(=O)NS(=O)(=O)C1CC1` [Compound 90, (5R,8S)-7-[(2S)-2-{[(2S)-2-cyclohexyl-2-({[(3R)-1-ethylpiperidin-3-yl]carbonyl}amino)acetyl]amino}-3,3-dimethylbutanoyl]-N-{(1R,2S)-1-[(cyclopropylsulfonyl)carba-moyl]-2-vinylcyclopropyl}-10,10-dimethyl-7-azadispiro[3.0.4.1]decane-8-carboxamide] here?
**A.** Its IC50 is 0.7 nM.

**Q.** Which IC50 does the source give for `CC[C@@H]1C[C@]1(NC(=O)[C@@H]1C[C@@]2(CN1C(=O)[C@@H](NC(=O)[C@@H](NC(=O)[C@@H]1CCCCN1C(C)C)C(C)(C)C)C(C)(C)C)C(C)(C)C21CCC1)C(=O)NS(=O)(=O)C1CC1` [Compound 91, (5R,8S)-N-{(1R,2R)-1-[(cyclopropylsulfonyl)carba-moyl]-2-ethylcyclopropyl}-7-[(2S)-2-{[(2S)-2-({[(2S)-1-isopropylpiperidin-2-yl]carbonyl}amino)-3,3-dimethylbutanoyl]amino}-3,3-dimethylbutanoyl]-10,10-dimethyl-7-azadispiro[3.0.4.1]decane-8-carboxamide] here?
**A.** Its IC50 is 3.5 nM.

**Q.** How did the IC50 turn out when `C=C[C@@H]1C[C@]1(NC(=O)[C@@H]1C[C@@]2(CN1C(=O)[C@@H](NC(=O)[C@@H](NC(=O)[C@@H]1CCCCN1C(C)C)C1CCCCC1)C(C)(C)C)C(C)(C)C21CCC1)C(=O)NS(=O)(=O)C1CC1` [Compound 92, (5R,8S)-7-[(2S)-2-{[(2S)-2-cyclohexyl-2-({[(2S)-1-isopropylpiperidin-2-yl]carbonyl}amino)acetyl]amino}-3,3-dimethylbutanoyl]-N-{(1R,2S)-1-[(cyclopropylsulfonyl)carba-moyl]-2-vinylcyclopropyl}-10,10-dimethyl-7-azadispiro[3.0.4.1]decane-8-carboxamide] was run?
**A.** Its IC50 is 0.4 nM.
